Test results as given in ChEMBL document CHEMBL1201862, “PubChem BioAssay data set” (2004).
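96-well plates; 48 h exposure; 5 concentrations. Endpoints by linear interpolation between flanking doses. Not reached: highest tested concentration assigned. At the GI50, growth is halved.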 Active and inactive are the calls of the source. Rule as the data show it: active = GI50 up to about 1.1 µM and inactive = higher.

Legend:
Experiment in all cases: DTP human tumour cell line panel, 48 h
OVCAR-5 = system: OVCAR-5
HL-60 = system: HL-60
Hs-578T = system: Hs-578T
HCT-15 = system: HCT-15
SNB-19 = system: SNB-19
U-251 = system: U-251
OVCAR-4 = system: OVCAR-4
NCI-H226 = system: NCI-H226
PC-3 = system: PC-3
ACHN = system: ACHN
SNB-75 = system: SNB-75
IGROV-1 = system: IGROV-1
COLO 205 = system: COLO 205
SK-MEL-28 = system: SK-MEL-28
CCRF-CEM = system: CCRF-CEM
NCI-H522 = system: NCI-H522
MDA-MB-435 = system: MDA-MB-435
M14 = system: M14
786-0 = system: 786-0
SF-268 = system: SF-268

Cc1ccc(/C=N/Nc2cc(C)c3cccc(C)c3n2)s1
GI50 (OVCAR-5): 9.91 µM (inactive) | GI50 (HL-60): 3.28 µM (inactive) | GI50 (Hs-578T): 13.9 µM (inactive) | GI50 (HCT-15): 3.73 µM | GI50 (SNB-19): 26.5 µM (inactive) | GI50 (U-251): 10.6 µM (inactive) | GI50 (OVCAR-4): 13.9 µM (inactive) | GI50 (NCI-H226): 9.02 µM (inactive) | GI50 (PC-3): 8.2 µM (inactive) | GI50 (ACHN): 16.5 µM (inactive) | GI50 (SNB-75): 11.9 µM (inactive) | GI50 (IGROV-1): 2.61 µM (inactive) | GI50 (COLO 205): 6.98 µM (inactive) | GI50 (SK-MEL-28): 22.3 µM (inactive) | GI50 (CCRF-CEM): 4.43 µM (inactive) | GI50 (NCI-H522): 2.81 µM (inactive) | GI50 (MDA-MB-435): 7.14 µM (inactive) | GI50 (M14): 4.33 µM (inactive) | GI50 (786-0): 2.74 µM (inactive) | GI50 (SF-268): 6.73 µM (inactive)

Cc1ccc(NC(=O)c2cc(S(=O)(=O)Nc3n[nH]c(=O)[nH]3)c(SSc3cc(Cl)c(C(=O)Nc4ccc(C)cc4)cc3S(=O)(=O)Nc3n[nH]c(=O)[nH]3)cc2Cl)cc1
GI50 (OVCAR-5): > 100 µM (inactive) | GI50 (HL-60): > 100 µM (inactive) | GI50 (Hs-578T): > 100 µM (inactive) | GI50 (HCT-15): > 100 µM | GI50 (SNB-19): > 100 µM (inactive) | GI50 (U-251): > 100 µM (inactive) | GI50 (OVCAR-4): > 100 µM (inactive) | GI50 (NCI-H226): > 100 µM (inactive) | GI50 (PC-3): > 100 µM (inactive) | GI50 (ACHN): > 100 µM (inactive) | GI50 (SNB-75): > 100 µM (inactive) | GI50 (IGROV-1): > 100 µM (inactive) | GI50 (COLO 205): > 100 µM (inactive) | GI50 (SK-MEL-28): > 100 µM (inactive) | GI50 (CCRF-CEM): > 100 µM (inactive) | GI50 (NCI-H522): > 100 µM (inactive) | GI50 (MDA-MB-435): > 100 µM (inactive) | GI50 (M14): > 100 µM (inactive) | GI50 (786-0): > 100 µM (inactive) | GI50 (SF-268): > 100 µM (inactive)

COc1ccc2nccc(/C=C/c3ccc(N(C)C)cc3)c2c1
GI50 (OVCAR-5): > 10 µM (inactive) | GI50 (HL-60): > 10 µM (inactive) | GI50 (Hs-578T): > 10 µM (inactive) | GI50 (HCT-15): > 10 µM | GI50 (SNB-19): > 10 µM (inactive) | GI50 (U-251): > 10 µM (inactive) | GI50 (OVCAR-4): > 10 µM (inactive) | GI50 (NCI-H226): > 10 µM (inactive) | GI50 (PC-3): > 10 µM (inactive) | GI50 (ACHN): > 10 µM (inactive) | GI50 (SNB-75): 6.73 µM (inactive) | GI50 (IGROV-1): > 10 µM (inactive) | GI50 (COLO 205): > 10 µM (inactive) | GI50 (SK-MEL-28): > 10 µM (inactive) | GI50 (CCRF-CEM): 5.66 µM (inactive) | GI50 (NCI-H522): > 10 µM (inactive) | GI50 (MDA-MB-435): 2.31 µM (inactive) | GI50 (M14): > 10 µM (inactive) | GI50 (786-0): > 10 µM (inactive) | GI50 (SF-268): > 10 µM (inactive)

CC(=O)O[C@H]1C(=O)[C@@]2(C)[C@H]([C@H](OC(=O)c3ccccc3)[C@]3(O)C[C@H](OC(=O)[C@H](O)[C@@H](NC(=O)c4ccccc4)c4ccccc4C)C(C)=C1C3(C)C)[C@]1(OC(C)=O)CO[C@@H]1C[C@@H]2O
GI50 (OVCAR-5): 0.843 µM (active) | GI50 (HL-60): 0.0659 µM (active) | GI50 (Hs-578T): 0.222 µM (active) | GI50 (HCT-15): 6.38 µM | GI50 (SNB-19): 1.27 µM (inactive) | GI50 (U-251): 0.361 µM (active) | GI50 (OVCAR-4): 3.78 µM (inactive) | GI50 (NCI-H226): 1.71 µM (inactive) | GI50 (PC-3): 0.258 µM (active) | GI50 (ACHN): 2.44 µM (inactive) | GI50 (SNB-75): 0.767 µM (active) | GI50 (IGROV-1): 0.449 µM (active) | GI50 (COLO 205): 0.136 µM (active) | GI50 (SK-MEL-28): 1.55 µM (inactive) | GI50 (CCRF-CEM): 0.376 µM (active) | GI50 (NCI-H522): 0.556 µM (active) | GI50 (MDA-MB-435): 0.07 µM (active) | GI50 (M14): 0.55 µM (active) | GI50 (786-0): 1.64 µM (inactive) | GI50 (SF-268): 1.2 µM (inactive)

NCCCCC(N)C(=O)NCCNc1ccc(NCCNC(=O)C(N)CCCCN)c2c1C(=O)c1ccccc1C2=O (stereo not given)
GI50 (OVCAR-5): > 74.3 µM (inactive) | GI50 (HL-60): > 95.5 µM (inactive) | GI50 (Hs-578T): 8.38 µM (inactive) | GI50 (HCT-15): > 83.8 µM | GI50 (SNB-19): > 36.9 µM (inactive) | GI50 (U-251): 35 µM (inactive) | GI50 (OVCAR-4): > 100 µM (inactive) | GI50 (NCI-H226): > 21.7 µM (inactive) | GI50 (PC-3): 81.1 µM (inactive) | GI50 (ACHN): 35.6 µM (inactive) | GI50 (SNB-75): 43.2 µM (inactive) | GI50 (IGROV-1): > 100 µM (inactive) | GI50 (COLO 205): > 59.8 µM (inactive) | GI50 (SK-MEL-28): > 100 µM (inactive) | GI50 (CCRF-CEM): 31.9 µM (inactive) | GI50 (NCI-H522): 3.56 µM (inactive) | GI50 (MDA-MB-435): 98.6 µM (inactive) | GI50 (M14): > 100 µM (inactive) | GI50 (786-0): 7.41 µM (inactive) | GI50 (SF-268): > 100 µM (inactive)

Clc1ccc2c(SCC3CO3)c3ccccc3nc2c1 (stereo not given)
GI50 (OVCAR-5): 4.36 µM (inactive) | GI50 (HL-60): 1.04 µM (active) | GI50 (Hs-578T): 2.72 µM (inactive) | GI50 (HCT-15): 1.68 µM | GI50 (SNB-19): 5.43 µM (inactive) | GI50 (U-251): 1.84 µM (inactive) | GI50 (OVCAR-4): 3.87 µM (inactive) | GI50 (NCI-H226): 22.9 µM (inactive) | GI50 (PC-3): 2.65 µM (inactive) | GI50 (ACHN): 2.06 µM (inactive) | GI50 (SNB-75): 9.55 µM (inactive) | GI50 (IGROV-1): 1.33 µM (inactive) | GI50 (COLO 205): 3.02 µM (inactive) | GI50 (SK-MEL-28): 2.88 µM (inactive) | GI50 (CCRF-CEM): 2.43 µM (inactive) | GI50 (NCI-H522): 2.08 µM (inactive) | GI50 (MDA-MB-435): 3.15 µM (inactive) | GI50 (M14): 1.72 µM (inactive) | GI50 (786-0): 1.81 µM (inactive) | GI50 (SF-268): 3.18 µM (inactive)

COc1ccc2c(c1O)[C@@]13C=C(O)C(=O)C=C1[C@@H](C2)N(C)CC3
GI50 (OVCAR-5): > 100 µM (inactive) | GI50 (HL-60): 46.1 µM (inactive) | GI50 (Hs-578T): 59.3 µM (inactive) | GI50 (HCT-15): 68.7 µM | GI50 (SNB-19): 63.1 µM (inactive) | GI50 (U-251): 86.1 µM (inactive) | GI50 (OVCAR-4): 62.4 µM (inactive) | GI50 (NCI-H226): 56.9 µM (inactive) | GI50 (PC-3): 34.8 µM (inactive) | GI50 (ACHN): 43.6 µM (inactive) | GI50 (SNB-75): 54 µM (inactive) | GI50 (IGROV-1): 61.1 µM (inactive) | GI50 (COLO 205): > 100 µM (inactive) | GI50 (SK-MEL-28): 87.7 µM (inactive) | GI50 (CCRF-CEM): 43.8 µM (inactive) | GI50 (NCI-H522): 28.8 µM (inactive) | GI50 (MDA-MB-435): 40.6 µM (inactive) | GI50 (M14): 62.2 µM (inactive) | GI50 (786-0): 75 µM (inactive) | GI50 (SF-268): 28.6 µM (inactive)
